Test results as given in patent US9365571B2, “Piperidino-pyrimidine derivatives for the treatment of viral infections” (Janssen Sciences Ireland UC, priority 2012, dated 2016).

How the values were obtained:
Type in all cases: cell-based
human TLR7 = experiment: TLR7 cellular NFκB-luc reporter assay in transiently transfected HEK293 cells; details: lowest effective concentration, 6 hours incubation
Protocol: (§1) The ability of compounds to activate human TLR7 and/or TLR8 was assessed in a cellular reporter assay using HEK293 cells transiently transfected with a TLR7 or TLR8 expression vector and NFκB-luc reporter construct. In one instance the TLR expression construct expresses the respective wild type sequence or a mutant sequence comprising a deletion in the second leucine-rich repeat of the TLR.
(§2) Briefly, HEK293 cells were grown in culture medium (DMEM supplemented with 10% FCS and 2 mM Glutamine). For transfection of cells in 10 cm dishes, cells were detached with Trypsin-EDTA, transfected with a mix of CMV-TLR7 or TLR8 plasmid (750 ng), NFκB-luc plasmid (375 ng) and a transfection reagent and incubated overnight at 37° C. in a humidified 5% CO2 atmosphere. Transfected cells were then detached with Trypsin-EDTA, washed in PBS and resuspended in medium to a density of 1.67×10^5 cells/mL. Thirty microliters of cells were then dispensed into each well in 384-well plates, where 10 μL of compound in 4% DMSO was already present. Following 6 hours incubation at 37° C., 5% CO2, the luciferase activity was determined by adding 15 μl of Steady Lite Plus substrate (Perkin Elmer) to each well and readout performed on a ViewLux ultraHTS microplate imager (Perkin Elmer). Dose response curves were generated from measurements performed in quadruplicates. Lowest effective concentrations (LEC) values, defined as the concentration that induces an effect which is at least two fold above the standard deviation of the assay, were determined for each compound.

human TLR8 = experiment: TLR8 cellular NFκB-luc reporter assay in transiently transfected HEK293 cells; details: lowest effective concentration, 6 hours incubation
Protocol: as §1, §2

PBMC-IFNa = experiment: PBMC-IFNa; details: Table IIC; lowest effective concentration; read-out: PBMC-IFNa (LEC)

Row | SMILES | Human TLR7 (LEC, μM) (human TLR7; Table IIC) | Human TLR8 (LEC, μM) (human TLR8; Table IIC) | minimal effective concentration (PBMC-IFNa) | Human TLR7 (LEC, μM) (human TLR7; Table II A) | Human TLR8 (LEC, μM) (human TLR8; Table II A) | Human TLR7 (LEC, μM) (human TLR7; Table II B) | Human TLR8 (LEC, μM) (human TLR8; Table II B)
1 | CCC[C@@H](CCO)Nc1nc(N)nc2c1CN(C(=O)c1ccccc1)CC2 [Compound 39] | 2.5 µM | 4.2 µM | 0.5 µM | – | – | – | –
2 | CCCCNc1nc(N)nc2c1CCN(C(=O)C(C)C)C2 [Compound 13] | – | – | – | 3.21 µM | 0.85 µM | – | –
3 | CCC[C@@H](CCO)Nc1nc(N)nc2c1CN(C(=O)c1cscn1)CC2 [Compound 40] | 2.2 µM | 4.5 µM | 0.2 µM | – | – | – | –
4 | CCCCNc1nc(N)nc2c1CCN(C(=O)CC(F)(F)F)C2 [Compound 24] | – | – | – | 12.93 µM | 2.29 µM | – | –
5 | CCCC[C@@H](CCO)Nc1nc(N)nc2c1CN(C(=O)c1cscn1)CC2 [Compound 46] | 0.6 µM | 3.5 µM | 0.2 µM | – | – | – | –
6 | CCCC[C@@H](CCO)Nc1nc(N)nc2c1CN(C(=O)c1ccccc1)CC2 [Compound 48] | 1.2 µM | 3.9 µM | 0.3 µM | – | – | – | –
7 | CCCCNc1nc(N)nc2c1CN(C(=O)C1CCC1)CC2 [Compound 1] | – | – | – | – | – | 0.83 µM | 0.32 µM
8 | CCCCNc1nc(N)nc2c1CCN(C(=O)C1CCOCC1)C2 [Compound 29] | >25 µM | 7.5 µM | 8.7 µM | – | – | – | –
9 | CCCCNc1nc(N)nc2c1CCN(C(=O)CC)C2 [Compound 30] | 5.0 µM | 0.5 µM | 0.5 µM | – | – | – | –
10 | CCCCNc1nc(N)nc2c1CCN(C(=O)c1ccncc1)C2 [Compound 28] | 8.6 µM | 2.2 µM | 1.9 µM | – | – | – | –
11 | CCCCNc1nc(N)nc2c1CCN(C(=O)COC)C2 [Compound 16] | – | – | – | 5.37 µM | 1.49 µM | – | –
12 | CCCCNc1nc(N)nc2c1CCN(C(=O)CC#N)C2 [Compound 23] | – | – | – | 11.62 µM | 2.67 µM | – | –
13 | CCC[C@@H](CCO)Nc1nc(N)nc2c1CCN(C(=O)c1cccn1C)C2 [Compound 49] | 2.7 µM | 4.0 µM | 0.3 µM | – | – | – | –
14 | CCCCNc1nc(N)nc2c1CCN(C(=O)c1sccc1Cl)C2 [Compound 20] | – | – | – | 7.15 µM | 0.68 µM | – | –
15 | CCCCNc1nc(N)nc2c1CN(C(C)=O)CC2 [Compound 5] | – | – | – | – | – | 4.90 µM | 0.50 µM
16 | CCCCNc1nc(N)nc2c1CCN(C(=O)c1cccs1)C2 [Compound 12] | – | – | – | 2.40 µM | 0.36 µM | – | –
17 | CCCCNc1nc(N)nc2c1CCN(C(=O)c1ccsc1)C2 [Compound 21] | – | – | – | 8.13 µM | 1.85 µM | – | –
18 | CCCCNc1nc(N)nc2c1CN(C(=O)C(C)C)CC2 [Compound 7] | – | – | – | – | – | 8.13 µM | 1.62 µM
19 | CCC[C@@H](CCO)Nc1nc(N)nc2c1CN(C(=O)c1csc(C)n1)CC2 [Compound 42] | 2.2 µM | 2.1 µM | 0.2 µM | – | – | – | –
20 | CCCCNc1nc(N)nc2c1CN(C(=O)CC#N)CC2 [Compound 32] | 7.1 µM | 0.6 µM | 0.9 µM | – | – | – | –
21 | CCCC[C@@H](CCO)Nc1nc(N)nc2c1CN(C(=O)c1cccs1)CC2 [Compound 45] | 0.2 µM | 1.7 µM | 0.2 µM | – | – | – | –
22 | CCC[C@@H](CCO)Nc1nc(N)nc2c1CN(C(=O)c1cccs1)CC2 [Compound 47] | 0.2 µM | 1.1 µM | 0.2 µM | – | – | – | –
23 | CCCCNc1nc(N)nc2c1CCN(C(=O)c1cnccn1)C2 [Compound 22] | – | – | – | 9.35 µM | 1.37 µM | – | –
24 | CCCCNc1nc(N)nc2c1CCN(C(=O)c1csc(N)n1)C2 [Compound 15] | – | – | – | 4.66 µM | 1.31 µM | – | –
25 | CCCCNc1nc(N)nc2c1CCN(C(=O)C1CCC1)C2 [Compound 11] | – | – | – | 2.10 µM | 0.51 µM | – | –
26 | CCCCNc1nc(N)nc2c1CCN(C(=O)c1nccc3ccccc13)C2 [Compound 37] | 7.2 µM | 1.7 µM | 1.8 µM | – | – | – | –

Row | SMILES | Human TLR7 (LEC, μM) (human TLR7; Table IIC) | Human TLR8 (LEC, μM) (human TLR8; Table IIC) | minimal effective concentration (PBMC-IFNa) | Human TLR7 (LEC, μM) (human TLR7; Table II A) | Human TLR8 (LEC, μM) (human TLR8; Table II A) | Human TLR7 (LEC, μM) (human TLR7; Table II B) | Human TLR8 (LEC, μM) (human TLR8; Table II B)
27 | CCCCNc1nc(N)nc2c1CCN(C(=O)c1nccn1C)C2 [Compound 18] | – | – | – | 6.16 µM | 0.96 µM | – | –
28 | CCCCNc1nc(N)nc2c1CCN(C(=O)c1csnn1)C2 [Compound 27] | >25 µM | 1.9 µM | 1.2 µM | – | – | – | –
29 | CCCCNc1nc(N)nc2c1CCN(C(=O)[C@@H](N)C(C)C)C2 [Compound 25] | 20.0 µM | 1.8 µM | 1.1 µM | – | – | – | –
30 | CCCCNc1nc(N)nc2c1CCN(C(=O)C1CC1)C2 [Compound 4] | – | – | – | 6.82 µM | 0.47 µM | – | –
31 | CCCC[C@@H](CCO)Nc1nc(N)nc2c1CCN(C(=O)c1cccn1C)C2 [Compound 50] | 1.7 µM | 3.9 µM | 0.3 µM | – | – | – | –
32 | CCC[C@@H](CCO)Nc1nc(N)nc2c1CCN(C(=O)c1ccncc1)C2 [Compound 52] | 12.1 µM | 15 µM | – | – | – | – | –
33 | CCCCNc1nc(N)nc2c1CN(C(=O)Cc1cccs1)CC2 [Compound 6] | – | – | – | – | – | 3.45 µM | 0.88 µM
34 | CCCCNc1nc(N)nc2c1CCN(C(=O)c1ccccn1)C2 [Compound 19] | – | – | – | 6.59 µM | 0.83 µM | – | –
35 | CCCCNc1nc(N)nc2c1CCN(C(C)=O)C2 [Compound 17] | – | – | – | 5.82 µM | 0.43 µM | – | –
36 | CCCCNc1nc(N)nc2c1CCN(C(=O)c1cscn1)C2 [Compound 14] | – | – | – | 4.43 µM | 0.90 µM | – | –
37 | CCCCNc1nc(N)nc2c1CN(C(=O)c1ccsc1)CC2 [Compound 33] | 0.3 µM | 0.2 µM | 0.2 µM | – | – | – | –
38 | CCCCNc1nc(N)nc2c1CCN(C(=O)c1cocn1)C2 [Compound 36] | 4.7 µM | 0.9 µM | 0.6 µM | – | – | – | –
39 | CCCCNc1nc(N)nc2c1CN(C(=O)CC)CC2 [Compound 8] | – | – | – | – | – | 2.34 µM | 0.40 µM
40 | CCCCNc1nc(N)nc2c1CCN(C(=O)c1cccn1C)C2 [Compound 3] | – | – | – | 0.79 µM | 0.60 µM | – | –
41 | CCC[C@@H](CCO)Nc1nc(N)nc2c1CN(C(=O)c1ccco1)CC2 [Compound 41] | 0.4 µM | 0.4 µM | 0.1 µM | – | – | – | –
42 | CCCCNc1nc(N)nc2c1CCN(C(=O)c1ccccc1)C2 [Compound 2] | – | – | – | 3.96 µM | 0.75 µM | – | –
43 | CCCCNc1nc(N)nc2c1CN(C(=O)c1cc(C)on1)CC2 [Compound 34] | 0.8 µM | 0.4 µM | 0.2 µM | – | – | – | –
44 | CCCCNc1nc(N)nc2c1CCN(C(=O)[C@H](C)N)C2 [Compound 26] | 16.8 µM | 2.1 µM | 0.6 µM | – | – | – | –
45 | CCCCNc1nc(N)nc2c1CN(C(=O)c1cocn1)CC2 [Compound 35] | 0.7 µM | 0.2 µM | 0.2 µM | – | – | – | –
46 | CCCCNc1nc(N)nc2c1CCN(C(=O)c1cc(C)n(C)n1)C2 [Compound 10] | – | – | – | 2.04 µM | 0.71 µM | – | –
47 | CCCC[C@@H](CCO)Nc1nc(N)nc2c1CN(C(=O)c1cccn1C)CC2 [Compound 51] | 0.5 µM | 0.4 µM | 0.1 µM | – | – | – | –
48 | CCCCNc1nc(N)nc2c1CN(C(=O)C1CCOCC1)CC2 [Compound 31] | 7.7 µM | 0.6 µM | 1.3 µM | – | – | – | –
49 | CCCC[C@@H](CCO)Nc1nc(N)nc2c1CN(C(=O)c1ccco1)CC2 [Compound 43] | 0.1 µM | 0.7 µM | 0.04 µM | – | – | – | –
50 | CCCCNc1nc(N)nc2c1CCN(C(=O)Cc1cccs1)C2 [Compound 9] | – | – | – | 1.60 µM | 0.46 µM | – | –
51 | CCCC[C@@H](CCO)Nc1nc(N)nc2c1CN(C(=O)c1csc(C)n1)CC2 [Compound 44] | 1.0 µM | 6.6 µM | 0.2 µM | – | – | – | –
52 | CCCCNc1nc(N)nc2c1CCN(C(=O)c1cc(C)on1)C2 [Compound 38] | 5.2 µM | 0.8 µM | 0.6 µM | – | – | – | –
